pIC50: −log10 of the molar value. The source made the active and inactive calls. The rule behind the calls is not given here.
Columns and labels:
Plasmodium falciparum [1] = assay: Antimalarial activity as 2nd generation ring-stage chloroquine-sensitive Plasmodium falciparum 3D7 after 48 hrs by flow cytometry; type: functional, organism-based; details: 3D7, 48 h
Plasmodium falciparum [2] = assay: Antimalarial activity as 3rd generation ring-stage chloroquine-sensitive Plasmodium falciparum 3D7 after 48 hrs dose then 48 hrs drug-free; type: functional, organism-based; details: 3D7, 48 h
Plasmodium falciparum [3] = assay: Antimalarial activity as 2nd generation ring-stage chloroquine-resistant Plasmodium falciparum W2 after 48 hrs by flow cytometry; type: functional, organism-based; details: W2, 48 h
Plasmodium falciparum [4] = assay: Antimalarial activity as 3rd generation ring-stage chloroquine-resistant Plasmodium falciparum W2 after 48 hrs dose then 48 hrs drug-free; type: functional, organism-based; details: W2, 48 h, read-out: IC50
Plasmodium falciparum [5] = assay: Antimalarial activity as trophozoite arrest after 24 hrs against chloroquine-sensitive Plasmodium falciparum 3D7 infected human erythrocytes at 6 uM 96 hrs post infection; type: functional, organism-based
[6] = Tmax in patient with severe malaria at 200 mg, perorally; type: ADME, organism-based; details: human, in vivo, po
Plasmodium falciparum [7] = assay: Antimalarial activity as 2nd generation parasitaemia after 48 hrs against chloroquine-sensitive Plasmodium falciparum 3D7 infected human erythrocytes at 6 uM 0-12 hrs post invasion; type: functional
Plasmodium falciparum [8] = assay: (§1) Antimalarial activity as 2nd generation parasitaemia after 48 hrs against chloroquine-sensitive Plasmodium falciparum 3D7 infected human erythrocytes at 6 uM 0-24 hrs post invasion; type: functional
Plasmodium falciparum [9] = assay: as §1; type: functional; remark: listed apart in the source
Plasmodium falciparum [10] = assay: Antimalarial activity as 2nd generation parasitaemia after 48 hrs against chloroquine-sensitive Plasmodium falciparum 3D7 infected human erythrocytes at 6 uM 0-48 hrs post invasion; type: functional
Plasmodium falciparum [11] = assay: Antimalarial activity as 2nd generation parasitaemia after 48 hrs against chloroquine-sensitive Plasmodium falciparum 3D7 infected human erythrocytes at 6 uM 12-24 hrs post invasion; type: functional
Plasmodium falciparum [12] = assay: Antimalarial activity as 2nd generation parasitaemia after 48 hrs against chloroquine-sensitive Plasmodium falciparum 3D7 infected human erythrocytes at 6 uM 12-36 hrs post invasion; type: functional
Plasmodium falciparum [13] = assay: Antimalarial activity as 2nd generation parasitaemia after 48 hrs against chloroquine-sensitive Plasmodium falciparum 3D7 infected human erythrocytes at 6 uM 12-48 hrs post invasion; type: functional
Plasmodium falciparum [14] = assay: Antimalarial activity as 2nd generation parasitaemia after 48 hrs against chloroquine-sensitive Plasmodium falciparum 3D7 infected human erythrocytes at 6 uM 24-36 hrs post invasion; type: functional
Plasmodium falciparum [15] = assay: Antimalarial activity as 2nd generation parasitaemia after 48 hrs against chloroquine-sensitive Plasmodium falciparum 3D7 infected human erythrocytes at 6 uM 24-48 hrs post invasion; type: functional
Plasmodium falciparum [16] = assay: Antimalarial activity as 2nd generation parasitaemia after 48 hrs against chloroquine-sensitive Plasmodium falciparum 3D7 infected human erythrocytes at 6 uM 36-48 hrs post invasion; type: functional

CO[C@H]1/C=C/O[C@@]2(C)Oc3c(C)c(O)c4c(O)c(c(/C=N/N5CCN(C)CC5)c(O)c4c3C2=O)NC(=O)/C(C)=C\C=C\[C@H](C)[C@H](O)[C@@H](C)[C@@H](O)[C@@H](C)[C@H](OC(C)=O)[C@@H]1C [RIFAMPIN]
pIC50 (Plasmodium falciparum [1]): 5.52 | pIC50 (Plasmodium falciparum [2]): 5.55 | pIC50 (Plasmodium falciparum [3]): 6.56 | pIC50 (Plasmodium falciparum [4]): 6.28 | Activity (Plasmodium falciparum [5]): Active | Tmax [6]: 1 h | Activity (Plasmodium falciparum [7]): 65% | Activity (Plasmodium falciparum [8]): 16% | Activity (Plasmodium falciparum [9]): 14% | Activity (Plasmodium falciparum [10]): 15% | Activity (Plasmodium falciparum [11]): 36% | Activity (Plasmodium falciparum [12]): 13% | Activity (Plasmodium falciparum [13]): 13% | Activity (Plasmodium falciparum [14]): 49% | Activity (Plasmodium falciparum [15]): 25% | Activity (Plasmodium falciparum [16]): 93%
